Patent US20050256037A1, “Antibacterial amide macrocyles” (Bayer HealthCare AG, priority 2003, published 2005)
In brackets after ≈: the same amount, converted by molar mass. Structures can show the parent of a compound that is named as a salt.

Columns and labels:
S. aureus T17 [1] = assay: MIC, liquid dilution test in minimal medium (96-well microtitre plate); assay type: cell-based
Experimental: (§1) Determination of the Minimum Inhibitory Concentration (MIC)
(§2) The minimum inhibitory concentration (MIC) is the minimum concentration of an antibiotic with which the growth of a test microbe is inhibited over 18-24 h. The inhibitor concentration can in these cases be determined by standard microbiological methods (see, for example, The National Committee for Clinical Laboratory Standards. Methods for dilution antimicrobial susceptibility tests for bacteria that grow aerobically; approved standard-fifth edition. NCCLS document M7-A5 [ISBN 1-56238-394-9]. NCCLS, 940 West Valley Road, Suite 1400, Wayne, Pa. 19087-1898 USA, 2000). The MIC of the compounds of the invention is determined in the liquid dilution test on the 96-well microtitre plate scale. The bacterial microbes are cultivated in a minimal medium (18.5 mM Na2HPO4, 5.7 mM KH2PO4, 9.3 mM NH4Cl, 2.8 mM MgSO4, 17.1 mM NaCl, 0.033 μg/ml thiamine hydrochloride, 1.2 μg/ml nicotinic acid, 0.003 μg/ml biotin, 1% glucose, 25 μg/ml of each proteinogenic amino acid with the exception of phenylalanine; [H.-P. Kroll; unpublished]) with addition of 0.4% BH broth (test medium). In the case of Enterococcus faecium L4001, heat-inactivated fetal calf serum (FCS; GibcoBRL, Germany) is added to the test medium in a final concentration of 10%. Overnight cultures of the test microbes are diluted to an OD578 of 0.001 (to 0.01 in the case of enterococci) in fresh test medium, and incubated 1:1 with dilutions of the test substances (1:2 dilution steps) in test medium (200 μl final volume). The cultures are incubated at 37° C. for 18-24 hours; enterococci in the presence of 5% CO2.
(§3) The lowest substance concentration in each case at which bacterial growth was no longer visible is defined as the MIC. […] The compounds show a graded antibacterial effect against most of the test microbes.
The S. aureus strain T17 is isolated in vivo. CFW1 mice are infected intraperitoneally with 4×10^7 S. aureus 133 cells per mouse. 0.5 h after the infection, the animals are treated intravenously with 50 mg/kg biphenomycin B. The kidneys are removed from the surviving animals on day 3 after the infection. After homogenization of the organs, the homogenates are plated out as described for RN4220Bi^R on antibiotic-free and antibiotic-containing agar plates and incubated at 37° C. overnight. […] About 20 of these colonies are tested for the biphenomycin B MIC, and a colony with an MIC of >50 μM is selected for further cultivation, and the strain is referred to a T17.

[2] = molecular target: S. aureus 133 Translation; assay: S. aureus in vitro transcription-translation assay (S30 extract, firefly luciferase reporter); assay type: biochemical
Excerpt: In vitro Transcription-Translation with S. aureus Extracts
Construction of an S. aureus Luciferase Reporter Plasmid
A reporter plasmid which can be used in an in vitro transcription-translation assay from S. aureus is constructed by using the plasmid pBESTluc (Promega Corporation, USA). The E. coli tac promoter present in this plasmid in front of the firefly luciferase is replaced by the capA1 promoter with appropriate Shine-Dalgarno sequence from S. aureus. The primers CAPFor 5′-CGGCCAAGCTTACTCGGAT-[…] […]-3′ and CAPRev 5′-[…]-3′ are used for this. The primer CAPFor contains the capA1 promoter, the ribosome binding site and the 5′ region of the luciferase gene. After PCR using pBESTluc as template it is possible to isolate a PCR product which contains the firefly luciferase gene with the fused capA1 promoter. This is, after restriction with ClaI and HindIII, ligated into the vector pBESTluc which has likewise been digested with ClaI and HindIII. The resulting plasmid pla is able to replicate in E. coli and be used as template in the S. aureus in vitro transcription-traslation assay.
Preparation of S30 Extracts from S. aureus
Six litres of BHI medium are inoculated with a 250 ml overnight culture of an S. aureus strain and allowed to grow at 37° C. until the OD600 run is 2-4. The cells are harvested by centrifugation and washed in 500 ml of cold buffer A (10 mM Tris acetate, pH 8.0, 14 mM Magnesium acetate, 1 mM DTT, 1 M KCl). After renewed centrifugation, the cells are washed in 250 ml of cold buffer A with 50 mM KCl, and the resulting pellets are frozen at −20° C. for 60 min. The pellets are thawed on ice in 30 to 60 min and taken up to a total volume of 99 ml in buffer B (10 mM Tris acetate, pH 8.0, 20 mM Magnesium acetate, 1 mM DTT, 50.mM KCl). 1.5 ml portions of lysostaphin (0.8 mg/ml) in buffer B are introduced into 3 precooled centrifuge cups and each mixed with 33 ml of the cell suspension. The samples are incubated at 37° C., shaking occasionally, for 45 to 60 min, before 150 μl of a 0.5 M DTT solution are added. The lysed cells are centrifuged at 30 000×g and 4° C. for 30 min. The cell pellet is taken up in buffer B and then centrifuged again under the same conditions, and the collected supernatants are combined. The supernatants are centrifuged again under the same conditions, and 0.25 volume of buffer C (670 mM Tris acetate, pH 8.0, 20 mM Magnesium acetate, 7 mM Na3 phosphoenolpyruvate, 7 mM DTT, 5.5 mM ATP, 70 μM amino acids (complete from Promega), 75 μg of pyruvate kinase (Sigma, Germany)/ml are added to the upper ⅔ of the supernatant. The samples are incubated at 37° C. for 30 min. The supernatants are dialysed against 2 l of dialysis buffer (10 mM Tris acetate, pH 8.0, 14 mM Magnesium acetate, 1 mM DTT, 60 mM Potassium acetate) in a dialysis tube with a 3500 Da cut-off with one buffer change at 4° C. overnight. The dialysate is concentrated to a protein concentration of about 10 mg/ml by covering the dialysis tube with cold PEG 8000 powder (Sigma, Germany) at 4° C. The S30 extracts can be stored in aliquots at −70° C.
Determination of the IC50 in the S. aureus in vitro Transcription-Translation Assay Inhibition of protein biosynthesis of the compounds can be shown in an in vitro transcription-translation assay. The assay is based on the cell-free transcription and translation of firefly luciferase using the reporter plasmid pla as template and cell-free S30 extracts obtained from S. aureus. The activity of the resulting luciferase can be detected by luminescence measurement.
The amount of S30 extract or plasmid pla to be employed must be tested anew for each preparation in order to ensure an optimal concentration in the assay. 3 μl of the substance to be tested, dissolved in 5% DMSO, are introduced into an MTP. Then 10 μl of a suitably concentrated plasmid solution pla are added. […]

S. aureus 133 = assay: Systemic infection with S. aureus 133 (mouse sepsis model); assay type: in vivo; details: female CFW1 mice, i.p. infection, i.v. therapy 30 minutes after infection, survival recorded for 6 days
Experimental: Systemic Infection with S. aureus 133
For this purpose, S. aureus 133 cells are cultured overnight in BH broth (Oxoid, Germany). The overnight culture was diluted 1:100 in fresh BH broth and expanded for 3 hours. The bacteria which are in the logarithmic phase of growth are centrifuged and washed twice with buffered physiological saline solution. A cell suspension in saline solution with an extinction of 50 units is then adjusted in a photometer (Dr Lange LP 2W). After a dilution step (1:15), this suspension is mixed 1:1 with a 10% strength mucine suspension. 0.2 ml of this infection solution is administered i.p. per 20 g of mouse. This corresponds to a cell count of about 1-2×10 microbes/mouse. The i.v. therapy takes place 30 minutes after the infection. Female CFW1 mice are used for the infection test. The survival of the animals is recorded for 6 days. The animal model is adjusted so that untreated animals die within 24 h after the infection.

E. faecium L4001 [3] = assay: MIC, liquid dilution test in minimal medium (96-well microtitre plate); assay type: cell-based; details: Enterococcus faecium, L4001, read-out: MIC E. faecium L4001
Experimental: as §1, §2, §3

S. aureus E33 [4] = assay: as above; assay type: cell-based; details: Staphylococcus aureus, E33, read-out: MIC S. aureus E33
Experimental: as §1, §2, §3

E. faecium L4001 [5] = assay: MIC, alternative method: agar dilution test with 20% defibrinated horse blood; assay type: cell-based; details: Enterococcus faecium
Experimental: (§4) Alternative Method for Determining the Minimum Inhibitory Concentration (MIC)
(§5) The minimum inhibitory concentration (MIC) is the minimum concentration of an antibiotic with which the growth of a test microbe is inhibited over 18-24 h. The inhibitor concentration can be determined by standard microbiological methods using modified medium in an agar dilution test (see, for example, the National Committee for Clinical Laboratory Standards. Methods for dilution antimicrobial susceptibility tests for bacteria that grow aerobically; approved standard-fifth edition. NCCLS document M7-A5 [ISBN 1-56238-394-9]. NCCLS, 940 West Valley Road, Suite 1400, Wayne, Pa. 19087-1898 USA, 2000). The bacterial microbes are cultivated on 1.5% agar plates containing 20% defibrinated horse blood. The test microbes, which are incubated on Columbia blood agar plates (Becton-Dickinson) overnight, are diluted in PBS, adjusted to a microbe count of about 5×10^5 microbes/ml and placed as drops (1-3 μl) on test plates. The test substances contain various dilutions of the test substances (1:2 dilution stages). The cultures are incubated at 37° C. in the presence of 5% CO2 for 18-24 hours.
(§6) The lowest concentration of each substance at which no visible bacterial growth occurs is defined as the MIC and is reported in μg/ml.

S. aureus T17 [6] = assay: as above; assay type: cell-based; details: Staphylococcus aureus
Experimental: as §4, §5, §6

S. aureus E33 [7] = assay: as above; assay type: cell-based; details: Staphylococcus aureus
Experimental: as §4, §5, §6

S. aureus RN4220Bi^R = assay: MIC of the isolated resistant colony; assay type: cell-based; details: colony selected as strain RN4220Bi^R
Experimental: The S. aureus strain RN4220Bi^R is isolated in vitro. […] Whereas about 1×10^7 cells grow on the antibiotic-free plate, about 100 colonies grow on the antibiotic-containing plate, corresponding to a resistance rate of 1×10^−5. Some of the colonies grown on the antibiotic-containing plate are tested for the biphenomycin B MIC. One colony with an MIC of >50 μM is selected for further use, and the strain is referred to as RN4220Bi^R.

[8] = Staphylococcus aureus, T17, read-out: MIC S. aureus T17
[9] = L4001, read-out: MIC E. faecium L4001
[10] = T17, read-out: MIC S. aureus T17
[11] = E33, read-out: MIC S. aureus E33
[12] = L4001, Table B, agar dilution, 20% defibrinated horse blood, read-out: MIC E. faecium L4001
[13] = T17, Table B, agar dilution, 20% defibrinated horse blood, read-out: MIC S. aureus T17
[14] = E33, Table B, agar dilution, 20% defibrinated horse blood, read-out: MIC S. aureus E33

For `CN1C(=O)[C@H](C[C@@H](O)CN)NC(=O)[C@@H](N)Cc2cc(ccc2O)-c2ccc(O)c(c2)C[C@H]1C(=O)NC1CCNCC1` [Example 2, (8S,11S,14S)-14-Amino-11-[(2R)-3-amino-2-hydroxypropyl]-5,17-dihydroxy-9-methyl-10,13-dioxo-N-piperidin-4-yl-9,12-diazatricyclo[14.3.1.1^2,6]henicosa-1(20),2(21),3,5,16,18-hexaene-8-carboxamide trihydrochloride], the MIC (S. aureus T17 [1]; [8]) was 6.3 µM, the IC50 ([2]; Table A) was 200 nM and the “therapeutic effect ED100” value (S. aureus 133) was 1.25 mg/kg. For the same molecule, the MIC (E. faecium L4001 [3]) was 25 µM and the MIC (S. aureus E33 [4]) was 1.6 µM.

Molecule `CN1C(=O)[C@H](CCCN)NC(=O)[C@@H](N)Cc2cc(ccc2O)-c2ccc(O)c(c2)C[C@H]1C(=O)NCCN` [Example 3, (8S,11S,14S)-14-Amino-N-(2-aminoethyl)-11-(3-aminopropyl)-5,17-dihydroxy-9-methyl-10,13-dioxo-9,12-diazatricyclo[14.3.1.1^2,6]henicosa-1(20),2(21),3,5,16,18-hexaene-8-carboxamide trihydrochloride] has an MIC (S. aureus T17 [1]; [8]) of 3.1 µM, an MIC (E. faecium L4001 [5]; [9]) of 16 µg/mL and an MIC (S. aureus T17 [6]; [10]) of 4 µg/mL. For the same molecule, the MIC (S. aureus E33 [7]; [11]) was 2 µg/mL, the IC50 ([2]; Table A) was 350 nM and the IC50 ([2]; Table B) was 350 nM. The MIC (E. faecium L4001 [3]) was 25 µM and the MIC (S. aureus E33 [4]) was 1.6 µM.

`NCCCNCCCNC(=O)[C@@H]1Cc2cc(ccc2O)-c2ccc(O)c(c2)C[C@H](N)C(=O)N[C@@H](CCCN)C(=O)N1` [Example 42, (8S,11S,14S)-14-amino-11-(3-aminopropyl)-N-{3-[(3-aminopropyl)amino]propyl}-5,17-dihydroxy-10,13-dioxo-9,12-diazatricyclo[14.3.1.1^2,6]henicosa-1(20),2(21),3,5,16,18-hexaene-8-carboxamide] gave an MIC (E. faecium L4001 [5]; [12]) of 4 µg/mL (≈ 7.02 µM), an MIC (S. aureus T17 [6]; [13]) of 2 µg/mL (≈ 3.51 µM) and an MIC (S. aureus E33 [7]; [14]) of 1 µg/mL (≈ 1.76 µM). The IC50 ([2]; Table B) was 400 nM.

`NCCC[C@@H]1NC(=O)[C@@H](N)Cc2cc(ccc2O)-c2ccc(O)c(c2)C[C@@H](C(=O)NCCN(CCN)CCN)NC1=O` [Example 43, (8S,11S,14S)-14-amino-11-(3-aminopropyl)-N-{2-[bis(2-aminoethyl)amino]ethyl}-5,17-dihydroxy-10,13-dioxo-9,12-diazatricyclo[14.3.1.1^2,6]henicosa-1(20),2(21),3,5,16,18-hexaene-8-carboxamide] showed an MIC (E. faecium L4001 [5]; [12]) of 16 µg/mL (≈ 27.4 µM), an MIC (S. aureus T17 [6]; [13]) of 2 µg/mL (≈ 3.42 µM) and an MIC (S. aureus E33 [7]; [14]) of 1 µg/mL (≈ 1.71 µM). The IC50 ([2]; Table B) was 150 nM.

`NCCC[C@H](N)CNC(=O)[C@@H]1Cc2cc(ccc2O)-c2ccc(O)c(c2)C[C@H](N)C(=O)N[C@@H](CCCN)C(=O)N1` [Example 45, (8S,11S,14S)-14-amino-11-(3-aminopropyl)-N-[(2S)-2,5-diaminopentyl]-5,17-dihydroxy-10,13-dioxo-9,12-diazatricyclo[14.3.1.1 ^2,6]henicosa-1(20),2(21),3,5,16,18,-hexaene-8-carboxamide] gave an MIC (E. faecium L4001 [5]; [9]) of 2 µg/mL (≈ 3.6 µM), an MIC (S. aureus T17 [6]; [10]) of 2 µg/mL (≈ 3.6 µM) and an MIC (S. aureus E33 [7]; [11]) of 0.5 µg/mL (≈ 0.9 µM). The IC50 ([2]; Table B) was 100 nM.

For `NC[C@H](O)C[C@@H]1NC(=O)[C@@H](N)Cc2cc(ccc2O)-c2ccc(O)c(c2)C[C@@H](C(=O)O)NC1=O` [biphenomycin B, reference compound], the MIC (S. aureus RN4220Bi^R) was > 50 µM and the MIC (S. aureus T17 [1]; colony selected as strain T17, isolated from kidney of treated mice) was > 50 µM.
